Results: patent publication US20260070885A1, “TRKA (G667C) AND FLT3 TARGET INHIBITOR AND COMBINATION OF SAME WITH CHIDAMIDE” (SHENZHEN CHIPSCREEN BIOSCIENCES CO., LTD., priority 2022, published 2026)

Experiments:
[1] = target: FLT3 (D835Y) (Homo sapiens (Human), UniProt P36888, D835Y); experiment: HTRF kinase inhibition assay, FLT3 (D835Y); type: biochemical; conditions: ATP 0.5 μM
Protocol: (§1) The inhibition of the kinases TRKA (G667C), FLT3, and FLT3 (D835Y) by the compound N-[4-(6-fluoro-1H-2-benzimidazolyl)benzyl]-(E)-3-(pyridin-3-yl)acrylamide of the present disclosure (hereinafter referred to as compound A) was assessed using a homogeneous time-resolved fluorescence (HTRF) method based on biochemical levels.
(§2) HTRF is a technology used for detecting a test substance in a pure liquid phase system. Based on two major technologies: fluorescence resonance energy transfer (FRET) and time-resolved fluorescence (TRF), the generated fluorescence intensity was measured using a microplate reader, and the ratio 665 nm/620 nm reflected the extent to which compound A inhibited the activity of the kinases TRKA (G667C), FLT3, and FLT3 (D835Y).
(§3) a) Preparation of compound A or chidamide: The starting stock solution concentration of compound A or chidamide was 20 mM. The stock solution was serially diluted with the solvent 100% DMSO to 0.2 mM, which was 200 times the assay starting concentration.
(§4) b) A kinase reaction buffer Assay Buffer was prepared using the following formula: […]
(§5) 4) After the 384-well plate was centrifuged at 1000 rpm for 30 s and shaken for thorough mixing, the fluorescence intensities at 665 nm and 620 nm were measured using EnVision, and the TR-FRET ratio (665 nm/620 nm) was calculated. […]

[2] = target: FLT3 (Homo sapiens (Human), UniProt P36888); experiment: HTRF kinase inhibition assay, FLT3; type: biochemical; conditions: ATP 2 μM
Protocol: as §1, §2, §3, §4, §5

[3] = target: TRKA (G667C) (Homo sapiens (Human), UniProt P04629, G667C); experiment: HTRF kinase inhibition assay, TRKA (G667C); type: biochemical; conditions: ATP 0.5 μM
Chain of TRKA (G667C) (P04629 33-796 G667C): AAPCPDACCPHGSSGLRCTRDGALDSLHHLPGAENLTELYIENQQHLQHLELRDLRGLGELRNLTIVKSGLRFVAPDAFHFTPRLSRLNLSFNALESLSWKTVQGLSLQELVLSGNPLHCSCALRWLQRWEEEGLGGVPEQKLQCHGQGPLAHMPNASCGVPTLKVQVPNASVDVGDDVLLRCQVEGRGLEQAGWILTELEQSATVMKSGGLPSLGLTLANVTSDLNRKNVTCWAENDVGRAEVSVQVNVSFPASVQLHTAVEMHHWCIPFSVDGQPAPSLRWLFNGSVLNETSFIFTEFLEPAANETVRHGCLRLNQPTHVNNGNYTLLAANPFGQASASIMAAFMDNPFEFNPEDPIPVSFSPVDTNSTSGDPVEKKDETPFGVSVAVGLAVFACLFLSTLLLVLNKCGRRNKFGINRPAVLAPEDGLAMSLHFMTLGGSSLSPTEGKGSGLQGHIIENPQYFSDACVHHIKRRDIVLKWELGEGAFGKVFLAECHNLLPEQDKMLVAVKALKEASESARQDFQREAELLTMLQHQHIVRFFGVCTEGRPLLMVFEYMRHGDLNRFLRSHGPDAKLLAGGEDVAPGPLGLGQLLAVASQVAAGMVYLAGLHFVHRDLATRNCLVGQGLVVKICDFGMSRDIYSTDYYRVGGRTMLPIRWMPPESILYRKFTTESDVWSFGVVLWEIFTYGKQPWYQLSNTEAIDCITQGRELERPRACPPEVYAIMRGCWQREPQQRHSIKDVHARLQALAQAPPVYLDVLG
Protocol: as §1, §2, §3, §4, §5

[4] = test system: SHP77 cells; experiment: Viability of SHP77 cells (MTS assay); type: cell-based; conditions: 72 h
Protocol: The SHP77 cell line was purchased from the American Type Culture Collection (ATCC) and cultured in an RPMI-1640 culture medium (Hyclone) containing 1% dual antibiotics (penicillin-streptomycin, Hyclone) and 10% fetal bovine serum (Gibco).
Compound A (N-[4-(6-Fluoro-1H-2-benzimidazolyl)benzyl]-(E)-3-(pyridin-3-yl)acrylamide) and chidamide were both from Shenzhen Chipscreen Biosciences Co., Ltd. The compound and chidamide were dissolved in dimethyl sulfoxide (DMSO, Shanghai Sangon, DN3039A) to prepare 20 mM working mother liquors, and the mother liquors were stored in a freezer at −20° C. before use. When in use, the mother liquors were diluted to prepare working solutions with corresponding final concentrations according to the needs of each experiment.
MTS solution: 42 mg of MTS Reagent Powder was placed in a light shielding container, and 21 mL of PBS was added. The mixture was gently stirred on a magnetic stirrer for 15 min until MTS was completely dissolved. The pH of the solution was measured. If the pH was higher than 6.5, the pH of the solution was adjusted to 6.5 with 1 M HCl. The solution was sterilized by filtration through a 0.2 μm filter and stored at −20° C. in a dark place.
PMS solution: […] of PMS was added to 21.7 mL of PBS to prepare a 150 μM stock solution, and the stock solution was sterilized by filtration, aliquoted, and stored at −20° C. in a dark place.
2.2. […]
2.4. […] After the plate was incubated for about 1 h, the absorbance at 490 nm in each well was measured using a microplate reader.
The reading of the BLANK well was OD490-BLANK (background value). The background value was subtracted from the readings of the wells to obtain the absorbance values of the administration wells, OD490-T, and the absorbance values of the control wells in which the drug concentration was 0, OD490-T0. With the cell viability of the control wells defined as 100%, the relative cell survival rate in each administration well was calculated using the formula: relative cell survival rate (%)=(OD490-T/OD490-T0)×100%.

Row | Structure (SMILES) | IC50 [1] [nM] | IC50 [2] [nM] | IC50 [3] [nM] | relative cell survival rate ([4]; chidamide alone 0.5 μM) [%] | relative cell survival rate ([4]; compound A alone 0.625 μM) [%] | relative cell survival rate ([4]; compound A alone 1.25 μM) [%]
1 | Nc1cc(F)ccc1NC(=O)c1ccc(CNC(=O)/C=C/c2cccnc2)cc1 [Chidamide, N-(2-amino-4-fluorophenyl)-4-[N-[(E)-3-(pyridin-3-yl)acryloyl]aminomethyl]benzamide] | > 1000 | > 1000 | > 1000 | 95.45±0.81 | – | –
2 | O=C(/C=C/c1cccnc1)NCc1ccc(-c2nc3ccc(F)cc3[nH]2)cc1 [Compound A, N-[4-(6-fluoro-1H-2-benzimidazolyl)benzyl]-(E)-3-(pyridin-3-yl)acrylamide] | 104 | 143 | 40.7 | – | 77.43±1.18 | 44.09±6.59
